One assay concerns CD3^+ T cells. Kind of assay: qPCR analysis of in vitro activated CD3+ cells. Type of assay: cell-based. The method, then:
(FIG. 4A) Scheme of CD3+ T-cell activation and analysis for various timepoints in order to investigate mitophagy induction in vitro. (FIG. 4B) Analysis of mitochondrial membrane potential within CD8+ T cells, with TMRM^lo representing cells with low mitochondrial membrane potential. Analysis was performed six hours after stimulation with aCD/aCD28 stimulation beads at the presence of the indicated treatments. N=4 per group, *p < 0.05 by Mann Whitney U test. One of two independent experiments are shown. (FIG. 4C) Representative flow histogram and quantification of lysosome formation in CD8+ cells six hours after in vitro stimulation. MFI shown relative to DMSO controls, n=4. Data are normalised mean ± SD, statistical analysis by two-sided t-test. One out of two independent experiments are shown. (FIG. 4D) Mitotracker Red staining of in vitro stimulated CD8+ cells after 24 hours of Urolithin A (UA25 n=6; UA50 n=6) or vehicle control treatment (DMSO: n=4). […] (FIG. 4H) CD8+ cells from Pink1^-/- mice display deficient mitophagy upon UA treatment in vitro: Lysosome formation in CD8+ of Pink1^-/- mice as assessed by Lysotracker staining 6h post stimulation at the presence of UA or DMSO (n=4). […] Quantification of TCF1^hi cells among CD8. (FIG. 4N) Quantification of PD1^hi cells among CD8. (FIG. 4O) Quantification of and Tim3^hi cells among CD8. […]
A general note: In qPCR the cycle at which signal appears reflects the starting amount.

A further assay has as its system C.elegans. Conditions: in vivo; cited from earlier work.

`O=c1oc2cc(O)ccc2c2ccc(O)cc12` [Urolithin A]: the “autophagy genes and Pink1 (qPCR)” value in the assay with CD3^+ T cells (24 h after activation) is “significant upregulation”. Further, the “transcription of Wnt target genes (qPCR)” value with CD3^+ T cells (24 h after stimulation) is on record as “increased transcription”. Moreover, in the assay with C.elegans, the lifespan result is “prolonged lifespan” and the mitochondrial content result was “higher mitochondrial content”.
